Results reported in patent US11542304B2, “Multimeric bicyclic peptide ligands” (BicycleTx Limited, priority 2018, dated 2023).
Starred links: 1 amine or outer side, 2 acyl side, 3 side chain; linkers in the order of their positions; H or OH if unused. Positions of bridges follow the written chain, without caps; N, C: chain ends. Non-standard residues stand in square brackets, D forms with d. Chains are numbered I, II in the order given. X3 = O=C(CCOCCN(CCOCCC(=O)NCCOCCOCCOCCOCCOCCOCCOCCOCCOCCOCCn1nnc2c1CCC1C(CC2)C1COC(=O)[*:2])CCOCCC(=O)NCCOCCOCCOCCOCCOCCOCCOCCOCCOCCOCCn1nnc2c1CCC1C(CC2)C1COC(=O)[*:3])NCCOCCOCCOCCOCCOCCOCCOCCOCCOCCOCCn1nnc2c1CCC1C(CC2)C1COC(=O)[*:1]; TATA = O=C(CC[*:1])N1CN(C(=O)CC[*:2])CN(C(=O)CC[*:3])C1; Nle = CCCC[C@H](N)C(=O)O

Molecular target: CD137 (Homo sapiens, UniProt Q07011)
Test: CD137 Promega reporter cell activity assay (NF-κB luciferase in Jurkat cells)
Conditions: for Average Fold EC50 Improvement relative to CD137L: Average EC50 for CD137L = 14.2 nM; for Average Relative Fold Induction relative to CD137L: Average fold induction for CD137L = 4.0

Sequence of CD137 (Q07011 24-255): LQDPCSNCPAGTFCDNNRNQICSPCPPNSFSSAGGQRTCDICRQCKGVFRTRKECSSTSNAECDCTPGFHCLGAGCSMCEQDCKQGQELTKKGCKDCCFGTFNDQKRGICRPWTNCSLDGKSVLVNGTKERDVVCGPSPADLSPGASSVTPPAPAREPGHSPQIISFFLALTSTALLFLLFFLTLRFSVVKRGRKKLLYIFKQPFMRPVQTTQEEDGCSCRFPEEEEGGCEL

Compound	Average Fold EC50 Improvement relative to CD137L	Average Relative Fold Induction relative to CD137L
CCCC[C@@H]1NC(=O)[C@H](Cc2ccc(O)cc2)NC(=O)[C@@H]2CCCN2C(=O)[C@H](CC(=O)O)NC(=O)[C@H](C)NC(=O)[C@H](CCCCNC(=O)OCC2C3CCc4nnn(CCOCCOCCOCCOCCOCCOCCOCCOCCOCCOCCNC(=O)CCOCC(COCCC(=O)NCCOCCOCCOCCOCCOCCOCCOCCOCCOCCOCCn5nnc6c5CCC5C(CC6)C5COC(=O)NCCCC[C@@H]5NC(=O)[C@@H]6CSCCC(=O)N7CN(CN(C7)C(=O)CCSC[C@@H](C(=O)N[C@@H](C)C(N)=O)NC(=O)[C@H](CCCC)NC(=O)[C@H](Cc7ccc(O)cc7)NC(=O)[C@@H]7CCCN7C(=O)[C@H](CC(=O)O)NC(=O)[C@H](C)NC5=O)C(=O)CCSC[C@H](NC(=O)[C@H](C)NC(C)=O)C(=O)N[C@@H]([C@@H](C)CC)C(=O)N[C@@H](CCC(=O)O)C(=O)N[C@@H](CCC(=O)O)C(=O)NCC(=O)N[C@@H](CCC(N)=O)C(=O)N[C@@H](Cc5ccc(O)cc5)C(=O)N6)(COCCC(=O)NCCOCCOCCOCCOCCOCCOCCOCCOCCOCCOCCn5nnc6c5CCC5C(CC6)C5COC(=O)NCCCC[C@@H]5NC(=O)[C@@H]6CSCCC(=O)N7CN(CN(C7)C(=O)CCSC[C@@H](C(=O)N[C@@H](C)C(N)=O)NC(=O)[C@H](CCCC)NC(=O)[C@H](Cc7ccc(O)cc7)NC(=O)[C@@H]7CCCN7C(=O)[C@H](CC(=O)O)NC(=O)[C@H](C)NC5=O)C(=O)CCSC[C@H](NC(=O)[C@H](C)NC(C)=O)C(=O)N[C@@H]([C@@H](C)CC)C(=O)N[C@@H](CCC(=O)O)C(=O)N[C@@H](CCC(=O)O)C(=O)NCC(=O)N[C@@H](CCC(N)=O)C(=O)N[C@@H](Cc5ccc(O)cc5)C(=O)N6)COCCC(=O)NCCOCCOCCOCCOCCOCCOCCOCCOCCOCCOCCn5nnc6c5CCC5C(CC6)C5COC(=O)NCCCC[C@@H]5NC(=O)[C@@H]6CSCCC(=O)N7CN(CN(C7)C(=O)CCSC[C@@H](C(=O)N[C@@H](C)C(N)=O)NC(=O)[C@H](CCCC)NC(=O)[C@H](Cc7ccc(O)cc7)NC(=O)[C@@H]7CCCN7C(=O)[C@H](CC(=O)O)NC(=O)[C@H](C)NC5=O)C(=O)CCSC[C@H](NC(=O)[C@H](C)NC(C)=O)C(=O)N[C@@H]([C@@H](C)CC)C(=O)N[C@@H](CCC(=O)O)C(=O)N[C@@H](CCC(=O)O)C(=O)NCC(=O)N[C@@H](CCC(N)=O)C(=O)N[C@@H](Cc5ccc(O)cc5)C(=O)N6)c4CCC32)NC(=O)[C@@H]2CSCCC(=O)N3CN(CN(C3)C(=O)CCSC[C@@H](C(=O)N[C@@H](C)C(N)=O)NC1=O)C(=O)CCSC[C@H](NC(=O)[C@H](C)NC(C)=O)C(=O)N[C@@H]([C@@H](C)CC)C(=O)N[C@@H](CCC(=O)O)C(=O)N[C@@H](CCC(=O)O)C(=O)NCC(=O)N[C@@H](CCC(N)=O)C(=O)N[C@@H](Cc1ccc(O)cc1)C(=O)N2 (stereo partly shown) [BCY8147]	50.58	1.04
CC[C@H](C)[C@@H]1NC(=O)[C@@H](NC(=O)[C@H](C)NC(C)=O)CSCCC(=O)N2CN3CN(C2)C(=O)CCSC[C@H](NC(=O)[C@H](Cc2ccc(O)cc2)NC(=O)[C@H](CCC(N)=O)NC(=O)CNC(=O)[C@H](CCC(=O)O)NC(=O)[C@H](CCC(=O)O)NC1=O)C(=O)N[C@@H](Cc1ccccc1)C(=O)N[C@@H](C)C(=O)N[C@@H](CC(=O)O)C(=O)N1CCC[C@H]1C(=O)N[C@@H](Cc1ccc(O)cc1)C(=O)N[C@@H](CCCCNC(=O)OCC1C2CCc4nnn(CCOCCOCCOCCOCCOCCOCCOCCOCCOCCOCCNC(=O)CCOCCN(CCOCCC(=O)NCCOCCOCCOCCOCCOCCOCCOCCOCCOCCOCCn5nnc6c5CCC5C(CC6)C5COC(=O)NCCCC[C@@H]5NC(=O)[C@H](Cc6ccc(O)cc6)NC(=O)[C@@H]6CCCN6C(=O)[C@H](CC(=O)O)NC(=O)[C@H](C)NC(=O)[C@H](Cc6ccccc6)NC(=O)[C@@H]6CSCCC(=O)N7CN(CN(C7)C(=O)CCSC[C@@H](C(=O)N[C@@H](C)C(N)=O)NC5=O)C(=O)CCSC[C@H](NC(=O)[C@H](C)NC(C)=O)C(=O)N[C@@H]([C@@H](C)CC)C(=O)N[C@@H](CCC(=O)O)C(=O)N[C@@H](CCC(=O)O)C(=O)NCC(=O)N[C@@H](CCC(N)=O)C(=O)N[C@@H](Cc5ccc(O)cc5)C(=O)N6)CCOCCC(=O)NCCOCCOCCOCCOCCOCCOCCOCCOCCOCCOCCn5nnc6c5CCC5C(CC6)C5COC(=O)NCCCC[C@@H]5NC(=O)[C@H](Cc6ccc(O)cc6)NC(=O)[C@@H]6CCCN6C(=O)[C@H](CC(=O)O)NC(=O)[C@H](C)NC(=O)[C@H](Cc6ccccc6)NC(=O)[C@@H]6CSCCC(=O)N7CN(CN(C7)C(=O)CCSC[C@@H](C(=O)N[C@@H](C)C(N)=O)NC5=O)C(=O)CCSC[C@H](NC(=O)[C@H](C)NC(C)=O)C(=O)N[C@@H]([C@@H](C)CC)C(=O)N[C@@H](CCC(=O)O)C(=O)N[C@@H](CCC(=O)O)C(=O)NCC(=O)N[C@@H](CCC(N)=O)C(=O)N[C@@H](Cc5ccc(O)cc5)C(=O)N6)c4CCC21)C(=O)N[C@H](C(=O)N[C@@H](C)C(N)=O)CSCCC3=O (stereo partly shown) [BCY8106]	1.26	0.94
CCCC[C@@H]1NC(=O)[C@H](Cc2ccc(O)cc2)NC(=O)[C@@H]2CCCN2C(=O)[C@H](CC(=O)O)NC(=O)[C@H](C)NC(=O)[C@H](Cc2ccccc2)NC(=O)[C@@H]2CSCCC(=O)N3CN(CN(C3)C(=O)CCSC[C@@H](C(=O)N[C@@H](C)C(N)=O)NC1=O)C(=O)CCSC[C@H](NC(=O)[C@H](C)NC(C)=O)C(=O)N[C@@H]([C@@H](C)CC)C(=O)N[C@@H](CCC(=O)O)C(=O)N[C@@H](CCC(=O)O)C(=O)N[C@H](CCCCNC(=O)OCC1C3CCc4nnn(CCOCCOCCOCCOCCOCCOCCOCCOCCOCCOCCNC(=O)CCOCCN(CCOCCC(=O)NCCOCCOCCOCCOCCOCCOCCOCCOCCOCCOCCn5nnc6c5CCC5C(CC6)C5COC(=O)NCCCC[C@H]5NC(=O)[C@H](CCC(=O)O)NC(=O)[C@H](CCC(=O)O)NC(=O)[C@H]([C@@H](C)CC)NC(=O)[C@@H](NC(=O)[C@H](C)NC(C)=O)CSCCC(=O)N6CN7CN(C6)C(=O)CCSC[C@H](NC(=O)[C@H](Cc6ccc(O)cc6)NC(=O)[C@H](CCC(N)=O)NC5=O)C(=O)N[C@@H](Cc5ccccc5)C(=O)N[C@@H](C)C(=O)N[C@@H](CC(=O)O)C(=O)N5CCC[C@H]5C(=O)N[C@@H](Cc5ccc(O)cc5)C(=O)N[C@@H](CCCC)C(=O)N[C@H](C(=O)N[C@@H](C)C(N)=O)CSCCC7=O)CCOCCC(=O)NCCOCCOCCOCCOCCOCCOCCOCCOCCOCCOCCn5nnc6c5CCC5C(CC6)C5COC(=O)NCCCC[C@H]5NC(=O)[C@H](CCC(=O)O)NC(=O)[C@H](CCC(=O)O)NC(=O)[C@H]([C@@H](C)CC)NC(=O)[C@@H](NC(=O)[C@H](C)NC(C)=O)CSCCC(=O)N6CN7CN(C6)C(=O)CCSC[C@H](NC(=O)[C@H](Cc6ccc(O)cc6)NC(=O)[C@H](CCC(N)=O)NC5=O)C(=O)N[C@@H](Cc5ccccc5)C(=O)N[C@@H](C)C(=O)N[C@@H](CC(=O)O)C(=O)N5CCC[C@H]5C(=O)N[C@@H](Cc5ccc(O)cc5)C(=O)N[C@@H](CCCC)C(=O)N[C@H](C(=O)N[C@@H](C)C(N)=O)CSCCC7=O)c4CCC31)C(=O)N[C@@H](CCC(N)=O)C(=O)N[C@@H](Cc1ccc(O)cc1)C(=O)N2 (stereo partly shown) [BCY8102]	41.27	0.91
CCCC[C@@H]1NC(=O)[C@H](Cc2ccc(O)cc2)NC(=O)[C@@H]2CCCN2C(=O)[C@H](CC(=O)O)NC(=O)[C@H](C)NC(=O)[C@H](Cc2ccccc2)NC(=O)[C@@H]2CSCCC(=O)N3CN(CN(C3)C(=O)CCSC[C@@H](C(=O)N[C@@H](C)C(N)=O)NC1=O)C(=O)CCSC[C@H](NC(=O)[C@H](C)NC(C)=O)C(=O)N[C@@H]([C@@H](C)CC)C(=O)N[C@@H](CCC(=O)O)C(=O)N[C@@H](CCC(=O)O)C(=O)N[C@H](CCCCNC(=O)OCC1C3CCc4nnn(CCOCCOCCOCCOCCOCCOCCOCCOCCOCCOCCOCCOCCOCCOCCOCCOCCOCCOCCOCCOCCOCCOCCOCCNC(=O)CCOCCN(CCOCCC(=O)NCCOCCOCCOCCOCCOCCOCCOCCOCCOCCOCCOCCOCCOCCOCCOCCOCCOCCOCCOCCOCCOCCOCCOCCn5nnc6c5CCC5C(CC6)C5COC(=O)NCCCC[C@H]5NC(=O)[C@H](CCC(=O)O)NC(=O)[C@H](CCC(=O)O)NC(=O)[C@H]([C@@H](C)CC)NC(=O)[C@@H](NC(=O)[C@H](C)NC(C)=O)CSCCC(=O)N6CN7CN(C6)C(=O)CCSC[C@H](NC(=O)[C@H](Cc6ccc(O)cc6)NC(=O)[C@H](CCC(N)=O)NC5=O)C(=O)N[C@@H](Cc5ccccc5)C(=O)N[C@@H](C)C(=O)N[C@@H](CC(=O)O)C(=O)N5CCC[C@H]5C(=O)N[C@@H](Cc5ccc(O)cc5)C(=O)N[C@@H](CCCC)C(=O)N[C@H](C(=O)N[C@@H](C)C(N)=O)CSCCC7=O)CCOCCC(=O)NCCOCCOCCOCCOCCOCCOCCOCCOCCOCCOCCOCCOCCOCCOCCOCCOCCOCCOCCOCCOCCOCCOCCOCCn5nnc6c5CCC5C(CC6)C5COC(=O)NCCCC[C@H]5NC(=O)[C@H](CCC(=O)O)NC(=O)[C@H](CCC(=O)O)NC(=O)[C@H]([C@@H](C)CC)NC(=O)[C@@H](NC(=O)[C@H](C)NC(C)=O)CSCCC(=O)N6CN7CN(C6)C(=O)CCSC[C@H](NC(=O)[C@H](Cc6ccc(O)cc6)NC(=O)[C@H](CCC(N)=O)NC5=O)C(=O)N[C@@H](Cc5ccccc5)C(=O)N[C@@H](C)C(=O)N[C@@H](CC(=O)O)C(=O)N5CCC[C@H]5C(=O)N[C@@H](Cc5ccc(O)cc5)C(=O)N[C@@H](CCCC)C(=O)N[C@H](C(=O)N[C@@H](C)C(N)=O)CSCCC7=O)c4CCC31)C(=O)N[C@@H](CCC(N)=O)C(=O)N[C@@H](Cc1ccc(O)cc1)C(=O)N2 (stereo partly shown) [BCY8103]	188.34	0.91
I: Ac-ACIEEGQYCKADPY[Nle]CA-NH2 / II: Ac-ACIEEGQYCKADPY[Nle]CA-NH2 / III: Ac-ACIEEGQYCKADPY[Nle]CA-NH2 (linker I:2-I:9-I:16, II:2-II:9-II:16, III:2-III:9-III:16 via TATA; linker I:10-II:10-III:10 via X3) [BCY8145]	5.93	0.95
